Source: patent US11655308B2, “HM-3 fusion protein and application thereof” (TASLY BIOPHARMACEUTICALS CO., LTD., priority 2017, dated 2023)

Assays:
[1] = system: mice splenic lymphocyte proliferation stimulated by ConA; type: cell-based
Description: Experimental method: mice orbit was by bloodletting to death, and immediately immersed in 75% ethanol for 5-10 min, and then the spleen was removed on a clean bench and placed in PBS. The spleen was placed on a sterile cell strainer (200 mesh) and ground with a syringe nozzle; during grinding process, PBS was added continuously; the slurry was collected and centrifuged (1000 rpm for 5 min), then cells were washed 3 times with Tris-ammonium chloride solution, and washed again with a medium, and then re-suspended in the medium. Finally, trypan blue living cell staining was performed on the cells, and the survival rate was more than 95%. The concentration of viable cells was adjusted to 2×10^6/mL. […] was added to each well of a 96-well plate, meanwhile, ConA (concanavalin to simulate splenocyte proliferation) and drugs were added to each well. Six duplicates were set in each group.
The 96-well plate was incubated for 48 h in a 5% CO2 incubator at 37° C. 5 mg/mL of MTT was added to the 96-well plate, 20 μL for each well, and then it was incubated continuously for 4 h in the incubator. The culture medium in the 96-well plate was discarded and 100 μL DMSO was added to each well and mixed gently. Absorbance was measured by a microplate reader at the wavelength of 570 nm and reference wavelength of 630 nm.
Proliferation inhibition rate (PI) was calculated according to formula:
[formula] wherein, Atest is the absorbance of dosing group, and Acontrol is the absorbance of negative control. Test results were expressed as mean±SD, and statistical T test was performed. *P<0.05 indicates significant difference, **P<0.01 indicates extremely significant difference. Based upon the results, the efficacy of the fusion protein against rheumatoid arthritis was screened.
In the P4 control group, TSL-4 fusion protein served as a control agent.

[2] = system: Rat chondrocyte; experiment: Influence of TSL-4 on viability of chondrocytes (MTT); type: cell-based; parameters: key to MTT test value: absorbance at 570 nm (MTT)
Description: At the end of incubation according to the experimental plan, 10 μL of 5 mg/ml MTT was added to each experimental group based upon 1/10 of the cell culture volume, so that the cells were incubated with MTT in the incubator for 4 hours. Afterwards, supernatant was carefully discarded, and 200 μL of dimethyl sulfoxide (DMSO) was added for mixing well, then the absorbance was measured on a microplate reader at a test wavelength of 570 nm. Calculating formula of relative cell activity ratio (%): a mean value of the absorbance (per well) in the experimental group/the absorbance in the control group multiplies by 100%. […] The difference between each group was analyzed by Prism 7.0, and tested by one-way ANOVA. *P<0.05 means statistical difference, **P<0.01 means significant statistical difference, and […] means extremely significant statistical difference.
The concentration of TSL-4 should be selected within 0.1, 0.3, 1, 3, 9, 27 μM.
In early experiment, the TSL-4 at each concentration had no effect on cell viability, therefore, it was diluted to 0.23 μM from 29.3 μM according to a dilution ratio of 1:5 based upon the concentration (293 μM) of the primary TSL-4 solution.

[3] = system: transgenic blood vessel fluorescent zebrafish; experiment: In vivo anti-angiogenesis in zebrafish (SIVs area); parameters: area of SIVs: unit not given here; settings: for inhibition rate of angiogenesis / area of SIVs: 24 h; for area of SIVs: normal control group 53193
Description: Experimental method: transgenic blood vessel fluorescent zebrafish was randomly selected and put into a six-well plate with 30 fish per well, and intravenously injected HM-3 polypeptide, TSL-1 fusion protein, TSL-2 fusion protein, TSL-3 fusion protein and TSL-4 fusion protein respectively in accordance with the dosage of 20 ng/tail and 66 ng/tail; the dosage was […] in Avastin positive control and the injection volume was 20 nL/tail; the zebrafish injected 20 nL/tail of buffer solution served as a solvent control group, and the zebrafish without any treatment served as a normal control group. 10 pieces of zebrafish were randomly selected from each group after processed for 24 h to observe the intestinal vessels of the transgenic zebrafish by a fluorescence microscope, as well as to take and maintain images. Image analysis was performed by Nikon MS-Elements D 3.10 to calculate the area (S) of SIVs (subintestinal vessel, SIV). The calculation formula of angiogenesis inhibition rate was as follows: Angiogenesis inhibition rate (%)=(1−S(Test sample group)/S(Normal control group))×100%
Statistical analysis was performed by variance analysis and Dunnett's T-test and the results were expressed as Mean±SD, where p<0.05 indicates a significant difference.

Q: With mIgG4-Fc-(GGGGS)3-HM-3 [TSL-4] as the substance, how does the “optimal (best) inhibition rate of splenic lymphocyte proliferation” value ([1]; ConA 5 μg/mL, 48 h, MTT, best of the tested concentrations) read?
A: Its value is 63.3%.

Q: And the “inhibition rate compared with the positive control group” value ([1]; positive group Dexamethasone 50 μmol/L)?
A: Its value is “higher than that of the positive control group”.

Q: And the “inhibition ratio of mice splenic lymphocyte proliferation relative to group ConA” value ([1]; second round (Table 3))?
A: The value was “enhanced significantly”.

Q: And the MTT test value ([2]; 0.1 μM TSL-4, 24 h (Table 24, low-dose), 0 μM 1.23)?
A: Its MTT test value is 1.26.

Q: And the MTT test value ([2]; 0.23 μM TSL-4, 24 h (Table 25), 0 μM 1.68)?
A: Its MTT test value is 1.59.

Q: And the MTT test value ([2]; 0.3 μM TSL-4, 24 h (Table 24, low-dose), 0 μM 1.23)?
A: The MTT test value was 1.2.

Q: What about the MTT test value ([2]; 1 μM TSL-4, 24 h (Table 23), 0 μM 1.43) of the same substance?
A: The MTT test value was 1.59.

Q: What about the MTT test value ([2]; 1 μM TSL-4, 24 h (Table 24, low-dose), 0 μM 1.23) of the same substance?
A: The MTT test value was 1.15.

Q: What about the MTT test value ([2]; 1 μM TSL-4, 48 h (Table 23), 0 μM 1.70) of the same substance?
A: The MTT test value was 1.43.

Q: What about the MTT test value ([2]; 1 μM TSL-4, 72 h (Table 23), 0 μM 1.51) of the same substance?
A: The MTT test value was 1.61.

Q: What about the MTT test value ([2]; 1.17 μM TSL-4, 24 h (Table 25), 0 μM 1.68) of the same substance?
A: The MTT test value was 1.4.

Q: And the MTT test value ([2]; 3 μM TSL-4, 24 h (Table 23), 0 μM 1.43)?
A: The MTT test value was 1.67.

Q: And the MTT test value ([2]; 3 μM TSL-4, 24 h (Table 24, low-dose), 0 μM 1.23)?
A: The MTT test value was 1.08.

Q: And the MTT test value ([2]; 3 μM TSL-4, 48 h (Table 23), 0 μM 1.70)?
A: The MTT test value was 1.43.

Q: What about the MTT test value ([2]; 3 μM TSL-4, 72 h (Table 23), 0 μM 1.51) of the same substance?
A: The MTT test value was 1.52.

Q: What about the MTT test value ([2]; 5.86 μM TSL-4, 24 h (Table 25), 0 μM 1.68) of the same substance?
A: The MTT test value was 1.39.

Q: What about the MTT test value ([2]; 9 μM TSL-4, 24 h (Table 23), 0 μM 1.43) of the same substance?
A: Its MTT test value is 1.72.

Q: What about the MTT test value ([2]; 9 μM TSL-4, 48 h (Table 23), 0 μM 1.70) of the same substance?
A: Its MTT test value is 1.51.

Q: What about the MTT test value ([2]; 9 μM TSL-4, 72 h (Table 23), 0 μM 1.51) of the same substance?
A: Its MTT test value is 1.57.

Q: What about the MTT test value ([2]; 27 μM TSL-4, 24 h (Table 23), 0 μM 1.43) of the same substance?
A: The MTT test value was 1.45.

Q: And the MTT test value ([2]; 27 μM TSL-4, 48 h (Table 23), 0 μM 1.70)?
A: The MTT test value was 1.30.

Q: What about the MTT test value ([2]; 27 μM TSL-4, 72 h (Table 23), 0 μM 1.51) of the same substance?
A: The MTT test value was 1.31.

Q: What about the MTT test value ([2]; 29.3 μM TSL-4, 24 h (Table 25), 0 μM 1.68) of the same substance?
A: The MTT test value was 1.24.

Q: And the “influence on cell viability” value ([2]; 0.1-3 μM TSL-4, 24 h)?
A: The value was “no significant difference”.

Q: And the “influence on cell viability” value ([2]; 0.23-29.3 μM TSL-4, 24 h)?
A: The value was “no significant change in cell viability”.

Q: What about the “influence on cell viability” value ([2]; 1-27 μM TSL-4, 24, 48 and 72 hours) of the same substance?
A: Its value is “no significant influence on cell viability”.

Q: And the “inhibiting effect on angiogenesis” value ([3]; 20 ng/tail)?
A: Its value is “significant inhibitory effect”.

Q: And the “inhibition rate of angiogenesis” value ([3]; 20 ng/tail iv)?
A: Its value is 36%.

Q: What about the “area of SIVs” value ([3]; 20 ng/tail iv) of the same substance?
A: Its value is 33869.

Q: What about the “inhibition rate of angiogenesis” value ([3]; 66 ng/tail iv) of the same substance?
A: The value was 47%.

Q: What about the “area of SIVs” value ([3]; 66 ng/tail iv) of the same substance?
A: The value was 28297.
